Laboratory results as given in patent US8044071B2, “Method for reducing side effects of CB2 receptor agonist therapy using a combination of a selective CB2 receptor agonist and a selective CB1 receptor antagonist” (Abbott Laboratories, priority 2007, dated 2011).
Where two headings read alike, the source gives them in different places.

Tests used:
[1] = system: spontaneous locomotor activity; assay: Measurement of locomotor activity (open field, horizontal activity); type: in vivo; settings: rat; for horizontal locomotor activity, agonist after rimonabant: 30 μmol/kg i.p., rimonabant 30 μmol/kg i.p. 15 min before
Description: Adverse effects may also be determined by the Measurement of Locomotor Activity. Spontaneous activity is assessed in an open-field environment (42 (length)×42 (base)×40 cm (height); Piper Plastics, Libertyville, Ill.) situated inside Versamax/Digiscan monitors, each equipped with infrared sensors (AccuScan Instruments, Inc., Columbus, Ohio) in a dimly illuminated test room. Following administration of test compounds or vehicle control, rats are individually placed into the test chambers and horizontal (locomotion) activity is recorded for 30 min. A reduction in horizontal motor activity for a test compound compared to the effect of vehicle is a measure of adverse effects; the greater the reduction in activity, the greater the adverse effect. Data is analyzed by ANOVA followed by Fisher's Protected Least significant difference (PLSD) analysis as a post hoc comparison (JMP statistic database; SAS Institute, Inc., Cary, N.C.). A p<0.05 was considered significant.
These effects also indicate that the reduction in locomotor activity by CB2 agonist B results from its residual activation of the CB1 receptor.
Using the locomotor activity assay, the effects of CB2 agonist A were evaluated after the administration of vehicle or the CB1 antagonist rimonabant. This effect was compared with the administration of vehicle after the administration of vehicle or the CB1 antagonist rimonabant. A first dose, consisting of CB1 antagonist rimonabant (30 μmol/kg i.p.) or a vehicle (5% DMSO/PEG), was administered 15 minutes before a second dose, consisting of administration of CB2 agonist A (30 μmol/kg i.p.) or vehicle. Locomotor testing was conducted 30 minutes after administration of the second dose, either CB2 agonist A or vehicle. […] CB2 agonist A administered after vehicle decreased horizontal locomotor activity by 91%.

human CB1 = target: T1, human CB1 (Homo sapiens, UniProt P21554); assay: CB1 radioligand binding assay ([3H]CP-55,940 competition)
T1 construct: purchased Perkin Elmer; host or cells: HEK293 membranes
T1 sequence (P21554 whole entry): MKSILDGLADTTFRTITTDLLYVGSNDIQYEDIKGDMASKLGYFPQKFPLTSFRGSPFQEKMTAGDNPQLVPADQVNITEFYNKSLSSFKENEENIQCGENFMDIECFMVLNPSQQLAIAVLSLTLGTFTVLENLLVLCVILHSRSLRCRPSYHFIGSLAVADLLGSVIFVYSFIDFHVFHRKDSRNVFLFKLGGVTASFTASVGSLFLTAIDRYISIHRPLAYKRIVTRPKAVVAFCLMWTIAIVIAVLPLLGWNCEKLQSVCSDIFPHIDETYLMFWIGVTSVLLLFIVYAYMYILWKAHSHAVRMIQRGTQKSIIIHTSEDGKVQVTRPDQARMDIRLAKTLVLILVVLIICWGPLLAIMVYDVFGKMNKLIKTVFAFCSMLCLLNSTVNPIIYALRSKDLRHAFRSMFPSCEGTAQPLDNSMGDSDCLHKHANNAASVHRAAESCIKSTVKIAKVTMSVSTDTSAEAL
Description: To determine the selectivity (Ki) of the compounds of the present application for CB2 receptors relative to CB1 receptors, radioligand binding assays are performed, which are described herein.
For CB1 radioligand binding assay HEK293 human CB1 membranes were purchased from Perkin Elmer. Binding was initiated by the addition of membranes (8-12 μg per well) into wells (Scienceware 96-well DeepWell plate, VWR, West Chester, Pa.) containing [^3H]CP-55,940 (120 Ci/mmol, Perkin Elmer, Boston, Mass.) and a sufficient volume of assay buffer (50 mM Tris, 2.5 mM EDTA, 5 mM MgCl2, and 0.5 mg/mL fatty acid free BSA, pH 7.4) to bring the total volume to 250 μL. After incubation (30° C. for 90 minutes), binding was terminated by the addition of 300 μL per well of cold assay buffer and rapid vacuum filtration (FilterMate Cell Harvester, Perkin Elmer, Boston, Mass.) through a UniFilter-96 GF/C filter plate (Perkin Elmer, Boston, Mass.) (pre-soaked in 0.3% PEI at least 3 hours), followed by five washes with cold assay buffer. The bound activity was counted in the TopCount using Microscint-20 (both from Perkin Elmer, Boston, Mass.). Competition experiments were conducted with 1 nM [^3H]CP-55,940 and five concentrations (1 nM to 10 μM) of displacing ligands. The addition of 10 μM unlabeled CP-55,940 (Tocris, Ellisville, Mo.) was used to assess nonspecific binding.

[2] = system: skin incision model of postoperative pain; assay: Skin incision model of postoperative pain (tactile allodynia, von Frey); type: in vivo; settings: rat; for analgesia (tactile allodynia), agonist after rimonabant: 30 μmol/kg i.p. given 15 min after rimonabant 30 μmol/kg i.p.; for withdrawal threshold for the incisional paw (allodynia): 10 and 30 μmol/kg i.p., two hours after surgery
Description: Adult male Sprague-Dawley rats (250-300 g body weight, Charles River Laboratories, Portage, Mich.) were used. Animal handling and experimental protocols were approved by the Institutional Animal Care and Use Committee (IACUC) at Abbott Laboratories. For all surgical procedures, animals were maintained under halothane anesthesia (4% to induce, 2% to maintain), and the incision sites were sterilized using a 10% povidone-iodine solution prior to and after surgeries.
A skin incision model of postoperative pain was produced using the procedures described in Brennan et al., 1996, Pain, 64, 493. All rats were anesthetized with isoflurane delivered via a nose cone. Right hind paw incision was performed following sterilization procedures. The plantar aspect of the […] hind paw was placed through a hole in a sterile plastic drape. A 1-cm longitudinal incision was made through the skin and fascia of the plantar aspect of the hind paw, starting 0.5 cm from the proximal edge of the heel and extending towards the toes, the plantar muscle was elevated and incised longitudinally leaving the muscle origin and insertion points intact. The skin was then closed with two mattress sutures (5-0 nylon). After surgery, animals were then allowed to recover for 2 hours, at which time tactile allodynia was assessed as described below. To evaluate the anti-nociceptive effects, animals were i.p. administered vehicle or test compound 90 minutes following skin incision and tactile allodynia was typically assessed 30 minutes after compound administration.
Tactile allodynia was measured using calibrated von Frey filaments (Stoelting, Wood Dale, Ill.) as described in Chaplan, S. R., F. W. Bach, J. W. Porgrel, J. M. Chung and T. L. Yaksh, 1994, Quantitative assessment of tactile allodynia in the rat paw, J. Neurosci. Methods, 53, 55. Rats were placed into inverted individual plastic cage (20×12.5×20 cm) on top of a suspended wire mesh grid, and acclimated to the test chambers for 20 minutes. The von Frey filaments were applied perpendicularly from underneath the cage through openings in the wire mesh floor directly to an area within 1-3 mm (immediately adjacent) of the incision, and then held in this position for approximately 8 seconds with enough force to cause a slight bend in the filament. Positive responses included an abrupt withdrawal of the hind paw from the stimulus, or flinching behavior immediately following removal of the stimulus. A 50% withdrawal threshold was determined using an up-down procedure as described in Dixon, W. J., 1980, Efficient analysis of experimental observations, Ann. Rev. Pharmacol. Toxicol., 20, 441. The effect on paw withdrawal latency of test compounds compared to vehicle control represents the ability of the test compound to reduce allodynia. An increase in the paw withdrawal latency represents an anti-allodynic effect (i.e., a decrease in pain).
Using the skin incisional model of postoperative pain, the effects of compound A, CB2 agonist (Z)—N-(5-tert-butyl-3-butylthiazol-2(3H)-ylidene)-5-chloro-2-methoxybenzamide, on allodynia was assessed two hours after surgery.
Using the skin incisional model of postoperative pain, the effects of CB2 agonist A were evaluated after the administration of vehicle or the CB1 antagonist rimonabant. This effect was compared with the administration of vehicle after the administration of vehicle or the CB1 antagonist rimonabant. A first dose, consisting of CB1 antagonist rimonabant (30 μmol/kg i.p.) or a vehicle (5% DMSO/PEG), was administered 15 minutes before a second dose, consisting of administration of CB2 agonist A (30 μmol/kg i.p.) or vehicle. Allodynia testing was conducted 30 minutes after administration of the second dose, either CB2 agonist A or vehicle.

Row | SMILES | decrease of horizontal locomotor activity, agonist after vehicle ([1]; 30 μmol/kg i.p. after vehicle, tested 30 min after second dose) | horizontal locomotor activity, agonist after rimonabant [1] | horizontal locomotor activity, agonist after rimonabant ([1]; listed as CB2 agonist A) | Ki (human CB1) | analgesia (tactile allodynia), agonist after rimonabant ([2]; tested 30 min after second dose) | analgesia (tactile allodynia), agonist after rimonabant ([2]; tested 30 min after second dose, listed as CB2 agonist A) | analgesia (tactile allodynia), agonist after vehicle ([2]; 30 μmol/kg i.p. given 15 min after vehicle, tested 30 min after second dose) | withdrawal threshold for the incisional paw (allodynia) [2] | spontaneous locomotor activity, agonist alone ([1]; 30 and 45 μmol/kg i.p., tested 30 min after administration) | spontaneous locomotor activity, agonist after rimonabant ([1]; rimonabant 30 μmol/kg i.p. 15 min before CB2 agonist B) | Ki (human CB1; HEK293 human CB1 membranes, 1 nM [3H]CP-55,940, read-out: Ki for CB1 receptors)
1 | CCCCn1cc(C(C)(C)C)s/c1=N\C(=O)c1cc(Cl)ccc1OC [compound A, (Z)—N-(5-tert-butyl-3-butylthiazol-2(3H)-ylidene)-5-chloro-2-methoxybenzamide] | 91% | much reduced side effects | able to block said decrease | 3.67 µM | equivalent efficacy | able to induce analgesia | able to induce analgesia | recovered |  |  | 
2 | COCCn1c(C)c(C)s/c1=N\C(=O)C1C(C)(C)C1(C)C [compound B, (Z)—N-(3-(2-methoxyethyl)-4,5-dimethylthiazol-2(3H)-ylidene)-2,2,3,3-tetramethylcyclopropanecarboxamide] |  |  |  |  |  |  |  | re-establishing withdrawal threshold | significantly reduces spontaneous locomotor activity | reduction in locomotor activity was eliminated | 0.273 µM
